# Test results from PubChem BioAssay (NCI).
#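 Exposure lasted 48 hours, with cells grown in 96-well plates and compounds tested at five concentrations. Abbreviation: GI50, concentration required for 50% inhibition of growth. TGI denotes the concentration required for complete inhibition of growth.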
# Columns and labels:
# Assay in all cases: NCI-60 cell line screen, 48 h
# DU-145 prostate = system: DU-145 prostate
# SK-OV-3 ovarian = system: SK-OV-3 ovarian
# OVCAR-4 ovarian = system: OVCAR-4 ovarian
# UACC-62 melanoma = system: UACC-62 melanoma
# SR leukemia = system: SR leukemia
# SK-MEL-2 melanoma = system: SK-MEL-2 melanoma
# T-47D breast = system: T-47D breast
# RPMI-8226 leukemia = system: RPMI-8226 leukemia
# SF-539 CNS = system: SF-539 CNS
# HS 578T breast = system: HS 578T breast
# CCRF-CEM leukemia = system: CCRF-CEM leukemia
# HCT-116 colon = system: HCT-116 colon
# TK-10 renal = system: TK-10 renal
# SK-MEL-28 melanoma = system: SK-MEL-28 melanoma
# SN12C renal = system: SN12C renal
# MCF7 breast = system: MCF7 breast
# A549 NSCLC = system: A549 NSCLC
# U251 CNS = system: U251 CNS
# HCT-15 colon = system: HCT-15 colon
# LOX IMVI melanoma = system: LOX IMVI melanoma
# CAKI-1 renal = system: CAKI-1 renal
# PC-3 prostate = system: PC-3 prostate
# BT-549 breast = system: BT-549 breast
# KM12 colon = system: KM12 colon
# SNB-75 CNS = system: SNB-75 CNS
# NCI-H522 lung = system: NCI-H522 lung
# NCI-H226 lung = system: NCI-H226 lung
# NCI/ADR-RES ovarian = system: NCI/ADR-RES ovarian
# SW-620 colon = system: SW-620 colon
# UO-31 renal = system: UO-31 renal
# EKVX NSCLC = system: EKVX NSCLC
# A498 renal = system: A498 renal
# NCI-H23 lung = system: NCI-H23 lung
# HOP-92 NSCLC = system: HOP-92 NSCLC
# HOP-62 NSCLC = system: HOP-62 NSCLC
# IGROV1 ovarian = system: IGROV1 ovarian
# 786-0 renal = system: 786-0 renal
# SK-MEL-5 melanoma = system: SK-MEL-5 melanoma
# RXF 393 renal = system: RXF 393 renal
# NCI-H460 lung = system: NCI-H460 lung
# OVCAR-8 ovarian = system: OVCAR-8 ovarian
# ACHN renal = system: ACHN renal
# SF-295 CNS = system: SF-295 CNS
# SNB-19 CNS = system: SNB-19 CNS
# K-562 leukemia = system: K-562 leukemia
# HL-60(TB) leukemia = system: HL-60(TB) leukemia
# OVCAR-5 ovarian = system: OVCAR-5 ovarian
# SF-268 CNS = system: SF-268 CNS
# OVCAR-3 ovarian = system: OVCAR-3 ovarian
# MDA-MB-231 breast = system: MDA-MB-231 breast
# HT29 colon = system: HT29 colon
# M14 melanoma = system: M14 melanoma
# UACC-257 melanoma = system: UACC-257 melanoma
# MDA-MB-435 = system: MDA-MB-435
# HCC-2998 colon = system: HCC-2998 colon
# MOLT-4 leukemia = system: MOLT-4 leukemia
# MALME-3M melanoma = system: MALME-3M melanoma
smiles,measurement,setting,value
CN1CCN(CC(O)COc2c(Br)c(Br)c(Br)c3c2OC(C)(C)C3)CC1 (centres undefined),GI50,DU-145 prostate,11.8 µM
same,TGI,DU-145 prostate,24.5 µM
same,GI50,SK-OV-3 ovarian,18.4 µM
same,TGI,SK-OV-3 ovarian,38.4 µM
same,GI50,OVCAR-4 ovarian,13.7 µM
same,TGI,OVCAR-4 ovarian,35.1 µM
same,GI50,UACC-62 melanoma,1.83 µM
same,TGI,UACC-62 melanoma,3.29 µM
same,GI50,SR leukemia,1.95 µM
same,TGI,SR leukemia,4.75 µM
same,GI50,SK-MEL-2 melanoma,10.2 µM
same,TGI,SK-MEL-2 melanoma,25.2 µM
same,GI50,T-47D breast,12.6 µM
same,TGI,T-47D breast,38.5 µM
same,GI50,RPMI-8226 leukemia,1.8 µM
same,TGI,RPMI-8226 leukemia,4.44 µM
same,GI50,SF-539 CNS,3.21 µM
same,TGI,SF-539 CNS,13.5 µM
same,GI50,HS 578T breast,10.4 µM
same,TGI,HS 578T breast,42.7 µM
same,GI50,CCRF-CEM leukemia,3.11 µM
same,TGI,CCRF-CEM leukemia,16.2 µM
same,GI50,HCT-116 colon,5.16 µM
same,TGI,HCT-116 colon,> 100 µM
same,GI50,TK-10 renal,15 µM
same,TGI,TK-10 renal,37.7 µM
same,GI50,SK-MEL-28 melanoma,1.85 µM
same,TGI,SK-MEL-28 melanoma,3.48 µM
same,GI50,SN12C renal,11.8 µM
same,TGI,SN12C renal,31.6 µM
same,GI50,MCF7 breast,3.33 µM
same,TGI,MCF7 breast,14.5 µM
same,GI50,A549 NSCLC,10.6 µM
same,TGI,A549 NSCLC,30.4 µM
same,GI50,U251 CNS,3.56 µM
same,TGI,U251 CNS,12.9 µM
same,GI50,HCT-15 colon,2.79 µM
same,TGI,HCT-15 colon,6.16 µM
same,GI50,LOX IMVI melanoma,1.92 µM
same,TGI,LOX IMVI melanoma,3.36 µM
same,GI50,CAKI-1 renal,14.5 µM
same,TGI,CAKI-1 renal,38.1 µM
same,GI50,PC-3 prostate,5.06 µM
same,TGI,PC-3 prostate,21.1 µM
same,GI50,BT-549 breast,10.6 µM
same,TGI,BT-549 breast,26.4 µM
same,GI50,KM12 colon,6.06 µM
same,TGI,KM12 colon,43.2 µM
same,GI50,SNB-75 CNS,7.79 µM
same,TGI,SNB-75 CNS,27 µM
same,GI50,NCI-H522 lung,6.15 µM
same,TGI,NCI-H522 lung,28.5 µM
same,GI50,NCI-H226 lung,24.2 µM
same,TGI,NCI-H226 lung,61.4 µM
same,GI50,NCI/ADR-RES ovarian,15.9 µM
same,TGI,NCI/ADR-RES ovarian,49 µM
same,GI50,SW-620 colon,3.16 µM
same,TGI,SW-620 colon,8.81 µM
same,GI50,UO-31 renal,9.24 µM
same,TGI,UO-31 renal,31 µM
same,GI50,EKVX NSCLC,5.21 µM
same,TGI,EKVX NSCLC,19.7 µM
same,GI50,A498 renal,10.1 µM
same,TGI,A498 renal,28.7 µM
same,GI50,NCI-H23 lung,14 µM
same,TGI,NCI-H23 lung,34.1 µM
same,GI50,HOP-92 NSCLC,3.1 µM
same,TGI,HOP-92 NSCLC,12.2 µM
same,GI50,HOP-62 NSCLC,4.26 µM
same,TGI,HOP-62 NSCLC,25.1 µM
same,GI50,IGROV1 ovarian,5.36 µM
same,TGI,IGROV1 ovarian,25.1 µM
same,GI50,786-0 renal,3.08 µM
same,TGI,786-0 renal,14.6 µM
same,GI50,SK-MEL-5 melanoma,1.83 µM
same,TGI,SK-MEL-5 melanoma,3.27 µM
same,GI50,RXF 393 renal,3.3 µM
same,TGI,RXF 393 renal,6.53 µM
same,GI50,NCI-H460 lung,3.1 µM
same,TGI,NCI-H460 lung,10.6 µM
same,GI50,OVCAR-8 ovarian,10.3 µM
same,TGI,OVCAR-8 ovarian,42.2 µM
same,GI50,ACHN renal,11.3 µM
same,TGI,ACHN renal,24.7 µM
same,GI50,SF-295 CNS,1.79 µM
same,TGI,SF-295 CNS,3.77 µM
same,GI50,SNB-19 CNS,12.7 µM
same,TGI,SNB-19 CNS,42.9 µM
same,GI50,K-562 leukemia,2.06 µM
same,TGI,K-562 leukemia,> 100 µM
same,GI50,HL-60(TB) leukemia,4.57 µM
same,TGI,HL-60(TB) leukemia,18 µM
same,GI50,OVCAR-5 ovarian,17.7 µM
same,TGI,OVCAR-5 ovarian,43.7 µM
same,GI50,SF-268 CNS,5.79 µM
same,TGI,SF-268 CNS,24.1 µM
same,GI50,OVCAR-3 ovarian,3.56 µM
same,TGI,OVCAR-3 ovarian,17.4 µM
same,GI50,MDA-MB-231 breast,2.56 µM
same,TGI,MDA-MB-231 breast,6.8 µM
same,GI50,HT29 colon,2.16 µM
same,TGI,HT29 colon,4.54 µM
COc1ccc(C(=O)N2c3ccccc3Sc3ccccc32)c(OC)c1,GI50,DU-145 prostate,0.491 µM
same,TGI,DU-145 prostate,> 100 µM
same,GI50,SK-OV-3 ovarian,0.715 µM
same,TGI,SK-OV-3 ovarian,> 100 µM
same,GI50,OVCAR-4 ovarian,3.17 µM
same,TGI,OVCAR-4 ovarian,> 100 µM
same,GI50,UACC-62 melanoma,0.321 µM
same,TGI,UACC-62 melanoma,> 100 µM
same,GI50,SR leukemia,0.562 µM
same,TGI,SR leukemia,> 100 µM
same,GI50,SK-MEL-2 melanoma,0.585 µM
same,TGI,SK-MEL-2 melanoma,> 100 µM
same,GI50,RPMI-8226 leukemia,0.523 µM
same,TGI,RPMI-8226 leukemia,29.9 µM
same,GI50,SF-539 CNS,0.333 µM
same,TGI,SF-539 CNS,4.37 µM
same,GI50,HS 578T breast,0.482 µM
same,TGI,HS 578T breast,> 100 µM
same,GI50,CCRF-CEM leukemia,0.394 µM
same,TGI,CCRF-CEM leukemia,> 100 µM
same,GI50,HCT-116 colon,0.452 µM
same,TGI,HCT-116 colon,> 100 µM
same,GI50,M14 melanoma,0.359 µM
same,TGI,M14 melanoma,> 100 µM
same,GI50,TK-10 renal,> 100 µM
same,TGI,TK-10 renal,> 100 µM
same,GI50,SK-MEL-28 melanoma,0.942 µM
same,TGI,SK-MEL-28 melanoma,> 100 µM
same,GI50,SN12C renal,0.586 µM
same,TGI,SN12C renal,> 100 µM
same,GI50,MCF7 breast,0.45 µM
same,TGI,MCF7 breast,> 100 µM
same,GI50,A549 NSCLC,0.785 µM
same,TGI,A549 NSCLC,> 100 µM
same,GI50,U251 CNS,0.615 µM
same,TGI,U251 CNS,> 100 µM
same,GI50,HCT-15 colon,0.464 µM
same,TGI,HCT-15 colon,> 100 µM
same,GI50,LOX IMVI melanoma,0.601 µM
same,TGI,LOX IMVI melanoma,> 100 µM
same,GI50,CAKI-1 renal,0.573 µM
same,TGI,CAKI-1 renal,> 100 µM
same,GI50,PC-3 prostate,0.43 µM
same,TGI,PC-3 prostate,> 100 µM
same,GI50,UACC-257 melanoma,27.8 µM
same,TGI,UACC-257 melanoma,> 100 µM
same,GI50,MDA-MB-435,0.212 µM
same,TGI,MDA-MB-435,0.953 µM
same,GI50,BT-549 breast,0.659 µM
same,TGI,BT-549 breast,> 100 µM
same,GI50,KM12 colon,0.438 µM
same,TGI,KM12 colon,> 100 µM
same,GI50,SNB-75 CNS,0.209 µM
same,TGI,SNB-75 CNS,> 100 µM
same,GI50,NCI-H522 lung,0.343 µM
same,TGI,NCI-H522 lung,> 100 µM
same,GI50,NCI-H226 lung,0.843 µM
same,TGI,NCI-H226 lung,> 100 µM
same,GI50,NCI/ADR-RES ovarian,0.4 µM
same,TGI,NCI/ADR-RES ovarian,42.1 µM
same,GI50,SW-620 colon,0.412 µM
same,TGI,SW-620 colon,> 100 µM
same,GI50,UO-31 renal,0.739 µM
same,TGI,UO-31 renal,> 100 µM
same,GI50,EKVX NSCLC,0.851 µM
same,TGI,EKVX NSCLC,> 100 µM
same,GI50,A498 renal,0.307 µM
same,TGI,A498 renal,16.6 µM
same,GI50,NCI-H23 lung,0.776 µM
same,TGI,NCI-H23 lung,> 100 µM
same,GI50,HOP-92 NSCLC,0.374 µM
same,TGI,HOP-92 NSCLC,97.2 µM
same,GI50,HOP-62 NSCLC,0.822 µM
same,TGI,HOP-62 NSCLC,> 100 µM
same,GI50,IGROV1 ovarian,0.926 µM
same,TGI,IGROV1 ovarian,> 100 µM
same,GI50,786-0 renal,0.48 µM
same,TGI,786-0 renal,> 100 µM
same,GI50,SK-MEL-5 melanoma,0.408 µM
same,TGI,SK-MEL-5 melanoma,> 100 µM
same,GI50,RXF 393 renal,0.413 µM
same,TGI,RXF 393 renal,> 100 µM
same,GI50,NCI-H460 lung,0.406 µM
same,TGI,NCI-H460 lung,> 100 µM
same,GI50,OVCAR-8 ovarian,0.749 µM
same,TGI,OVCAR-8 ovarian,> 100 µM
same,GI50,HCC-2998 colon,1.49 µM
same,TGI,HCC-2998 colon,8.09 µM
same,GI50,ACHN renal,0.726 µM
same,TGI,ACHN renal,> 100 µM
same,GI50,SF-295 CNS,0.484 µM
same,TGI,SF-295 CNS,> 100 µM
same,GI50,MOLT-4 leukemia,0.447 µM
same,TGI,MOLT-4 leukemia,> 100 µM
same,GI50,SNB-19 CNS,0.551 µM
same,TGI,SNB-19 CNS,> 100 µM
same,GI50,K-562 leukemia,0.381 µM
same,TGI,K-562 leukemia,> 100 µM
same,GI50,HL-60(TB) leukemia,0.297 µM
same,TGI,HL-60(TB) leukemia,18.5 µM
same,GI50,OVCAR-5 ovarian,10 µM
same,TGI,OVCAR-5 ovarian,> 100 µM
same,GI50,SF-268 CNS,0.853 µM
same,TGI,SF-268 CNS,> 100 µM
same,GI50,MALME-3M melanoma,0.416 µM
same,TGI,MALME-3M melanoma,> 100 µM
same,GI50,OVCAR-3 ovarian,0.322 µM
same,TGI,OVCAR-3 ovarian,1.14 µM
same,GI50,MDA-MB-231 breast,0.83 µM
same,TGI,MDA-MB-231 breast,> 100 µM
same,GI50,HT29 colon,0.385 µM
same,TGI,HT29 colon,> 100 µM
